# Experimental data as given in patent publication US6875759B1, “Substituted guanidines and the use thereof” (Kadmus Pharmaceuticals, priority 1999, dated 2005).
# Experiments:
# [1] = system: breast cancer cell line HS578T; assay: In vitro cytotoxicity, MTS assay, breast cancer cells; assay type: cell-based, human; conditions: 7 days exposure, dose causing death to 50% of cells, read-out: Cell Survival ED 50 Breast
# Description: In these experiments, cells were seeded at 400 cells per well 24 hours prior to addition of the test compound. Cells were grown at 37° C. in a humidified atmosphere of 95% air, 5% CO2 for 7 days with daily media changes. Cytotoxicity was assessed using the CellTiter 96 Aqueous Proliferation Assay (Promega, Madison, Wis.).
# [2] = system: human pancreatic cancer (HS766T) cells; assay type: in vivo; conditions: daily i.p. for five days
# Source text: FIG. 2B is a bar graph which depicts the effect of the compound of Example 8 on human pancreatic cancer in BDF/1 mice using the sub-renal capsule assay.
# Human cancer cells can be grown in the sub-renal capsule of immuno-competent mice where, for a limited period of time, they escape detection by the mouse's immune system. Thus, the sub-renal capsule assay provides a convenient system to study the effect of drugs on the growth of tumor cells in vivo (Bogden, A. E., et al., Exp. Cell Biol. 47:281 (1979)). Briefly, female BDF mice weighing 18-20g were anesthetized, the left kidney exteriorized and a small nick was made in the kidney capsule for implantation of tumor cells. Approximately 1×10^6 human prostate (DU14) or pancreatic cancer (HS766T) cells were prepared as a fibrinogen-jelled pellet (Stratton, J. A., et al., Gynecol. Oncol. 19:336 (1984); Stratton, J. A., et al., Gynecol. Oncol. 30:416 (1988)) and implanted beneath the renal capsule. […] One day after the final injection, the animals were killed and the tumor volume was measured. Tumor growth was determined by subtracting the initial size of the implant from the size of the implant size following treatment (Stratton, J. A., et al., Gynecol Oncol. 19:336 (1984); Stratton, J. A., et al., Gynecol. Oncol. 30:416 (1988)).
# [3] = system: HS578T breast cancer cells; assay: DNA fragmentation, TUNEL assay by flow cytometry; assay type: cell-based, human; conditions: 12.5 or 25 μM for 24 hours
# Description: FIGS. 4A-4C illustrate the effects of compound of Example 8 on HS578-T breast carcinoma cells. Cells were exposed to the compound at zero μM (FIG. 4A), 12.5 μM (FIG. 4B) or 25 μM (FIG. 4C) for 24 hours, and the degree of DNA fragmentation measured by flow cytometry using the TUNEL assay.
# The TUNEL assay examines DNA fragmentation using flow cytometry to detect DNA that is labeled with fluorescein dUTP compared to the total nuclear DNA content of the cell as measured using propidium iodide. Human HS578T breast cancer cells were treated with either 12.5 or 25 μM of the compound of Example 8 for 24 hours. As cells undergo apoptosis, DNA fragmentation occurs in a relatively intact nucleus, giving rise to a higher fluorescent intensity (x-axis) with stable staining by propidium iodide (y-axis).
# caspase-3 (CPP-32) = assay: Caspase-3 activation, western blot of cytosolic fractions; assay type: cell-based, human; conditions: breast cancer cells (HS578-T); 25 μM; 0-240 minutes
# Description: FIG. 6 is an immunoblot illustrating the activation of caspase 3 in human breast cancer cells (HS578-T) exposed to 25 μM of the compound of Example 8. Cells were exposed to the compound for 0, 30, 60, 90, 150, and 240 minutes of treatment with peak activity occurring 90 minutes after drug addition.
# When cells are induced to undergo apoptosis the cell death effector, caspase-3 (CPP-32), is cleaved and activated by proteolytic enzymes.
compound,measurement,setting,value
"Cc1ccc(N=C(Nc2ccc(C)cc2)N2CCN(C/C=C/c3ccccc3)CC2)cc1 [Example 8, 1-[(N,N′-Di-p-tolyl)amidino]-(trans-1′-cinnamyl)piperizine]",EC50,[1],2.3 µM
same,inhibition of tumor growth,[2]; pancreatic cancer cell line in mouse sub-renal capsule,greater than 95%
same,effect on tumor growth (in words),"[2]; pancreatic implant, FIG. 2B",dose-dependent and highly significant inhibition of tumor growth
same,DNA fragmentation (TUNEL),[3],pattern of DNA fragmentation characteristic of apoptosis
same,processed (activated) caspase-3 (in words),caspase-3 (CPP-32),time-dependent increase in processed caspase-3
